Source: patent US9156845B2, “4-(substituted amino)-7H-pyrrolo[2,3-d] pyrimidines as LRRK2 inhibitors” (Pfizer Inc., priority 2012, dated 2015)

Experiments:
[1] = target: GST-tagged truncated LRRK2 (Homo sapiens (Human), UniProt Q5S007); test: LRRK2 Lantha Screen kinase assay; format: biochemical; details: geometric mean of 2-5 determinations unless otherwise indicated (a: >=6 determinations; b: single determination); read-out: LRRK2 WT IC50
[2] = target: mutant G2019S LRRK2 (Homo sapiens (Human), UniProt Q5S007, G2019S); test: LRRK2 Lantha Screen kinase assay, mutant enzyme; format: biochemical; details: geometric mean of 2-5 determinations unless otherwise indicated (a: >=6 determinations; b: single determination)
Chain of mutant G2019S LRRK2 (Q5S007 970-2527 G2019S): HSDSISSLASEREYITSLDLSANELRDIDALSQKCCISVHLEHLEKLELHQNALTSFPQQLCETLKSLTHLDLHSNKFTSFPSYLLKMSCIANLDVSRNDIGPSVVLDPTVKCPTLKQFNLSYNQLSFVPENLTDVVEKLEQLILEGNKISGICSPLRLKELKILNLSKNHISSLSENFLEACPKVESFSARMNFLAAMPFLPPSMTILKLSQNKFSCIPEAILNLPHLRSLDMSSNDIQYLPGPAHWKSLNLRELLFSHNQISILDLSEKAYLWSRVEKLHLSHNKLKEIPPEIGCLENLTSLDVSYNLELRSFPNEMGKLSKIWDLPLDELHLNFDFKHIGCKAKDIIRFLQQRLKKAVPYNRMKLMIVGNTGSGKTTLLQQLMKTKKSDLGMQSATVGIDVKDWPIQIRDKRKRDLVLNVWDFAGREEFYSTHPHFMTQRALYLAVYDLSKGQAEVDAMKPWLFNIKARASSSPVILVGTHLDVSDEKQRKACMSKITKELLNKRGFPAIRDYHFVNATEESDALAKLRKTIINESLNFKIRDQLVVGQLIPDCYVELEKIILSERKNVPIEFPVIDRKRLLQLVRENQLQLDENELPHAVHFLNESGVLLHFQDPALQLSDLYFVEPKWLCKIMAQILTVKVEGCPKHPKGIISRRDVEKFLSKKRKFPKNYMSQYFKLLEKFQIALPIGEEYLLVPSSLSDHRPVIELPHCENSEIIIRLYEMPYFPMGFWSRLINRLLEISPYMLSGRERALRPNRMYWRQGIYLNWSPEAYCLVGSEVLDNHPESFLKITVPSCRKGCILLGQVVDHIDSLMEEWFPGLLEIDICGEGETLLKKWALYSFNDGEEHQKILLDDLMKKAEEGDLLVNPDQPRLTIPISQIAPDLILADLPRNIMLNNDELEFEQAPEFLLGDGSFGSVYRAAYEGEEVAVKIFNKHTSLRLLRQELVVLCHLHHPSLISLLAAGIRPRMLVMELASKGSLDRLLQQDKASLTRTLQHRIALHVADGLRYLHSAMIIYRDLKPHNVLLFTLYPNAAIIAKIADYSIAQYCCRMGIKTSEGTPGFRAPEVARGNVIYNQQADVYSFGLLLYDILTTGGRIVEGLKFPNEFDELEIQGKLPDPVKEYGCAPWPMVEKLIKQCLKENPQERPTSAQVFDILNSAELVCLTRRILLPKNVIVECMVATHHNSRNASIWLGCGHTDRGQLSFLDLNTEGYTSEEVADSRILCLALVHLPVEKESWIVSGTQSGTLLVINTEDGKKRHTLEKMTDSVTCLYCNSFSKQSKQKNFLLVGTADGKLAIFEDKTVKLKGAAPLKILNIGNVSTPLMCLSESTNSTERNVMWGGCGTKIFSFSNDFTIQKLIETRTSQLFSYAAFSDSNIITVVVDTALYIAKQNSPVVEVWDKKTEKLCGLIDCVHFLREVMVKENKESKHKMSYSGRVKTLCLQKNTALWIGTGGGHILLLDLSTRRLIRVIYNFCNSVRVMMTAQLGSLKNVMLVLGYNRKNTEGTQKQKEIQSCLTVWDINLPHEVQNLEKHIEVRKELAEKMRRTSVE

Chain of GST-tagged truncated LRRK2 (Q5S007 970-2527): as the sequence (Q5S007 970-2527 G2019S) above, with S1050G counted along it

IC50 [1] [nM] | IC50 [2] [nM] | SMILES
96 | 217 | Cc1nnc(C2CCCN(c3ncnc4[nH]cc(-c5cccc(C#N)c5)c34)C2)o1 (centres unmarked) [Example 146, 3-{4-[3-(5-methyl-1,3,4-oxadiazol-2-yl)piperidin-1-yl]-7H-pyrrolo[2,3-d]pyrimidin-5-yl}benzonitrile]
61 | 372 | COCC1CN(c2ncnc3[nH]cc(-c4cccc(C#N)c4F)c23)CCO1 (centres unmarked) [Example 167, 2-fluoro-3-{4-[2-(methoxymethyl)morpholin-4-yl]-7H-pyrrolo[2,3-d]pyrimidin-5-yl}benzonitrile]
57 | 59 | C[C@H]1CN(c2ncnc3[nH]cc(-c4cnn(C)c4)c23)CCO1 [Example 121, 4-[(2S)-2-methylmorpholin-4-yl]-5-(1-methyl-1H-pyrazol-4-yl)-7H-pyrrolo[2,3-d]pyrimidine]
64.7 | 350 | Cc1cc(C2CN(c3ncnc4[nH]cc(-c5cccc(C#N)c5)c34)CCO2)on1 (centres unmarked) [Example 202, 3-{4-[2-(3-Methyl-1,2-oxazol-5-yl)morpholin-4-yl]-7H-pyrrolo[2,3-d]pyrimidin-5-yl}benzonitrile]
91 | 281 | N#Cc1cccc(-c2c[nH]c3ncnc(N4CCOC(c5cccc(O)c5)C4)c23)c1 (centres unmarked) [Example 134, 3-{4-[2-(3-hydroxyphenyl)morpholin-4-yl]-7H-pyrrolo[2,3-d]pyrimidin-5-yl}benzonitrile]
77 | 406 | N#Cc1cc(Cl)cc(-c2c[nH]c3ncnc(N4CCOCC4)c23)c1 [Example 114, 3-chloro-5-[4-(morpholin-4-yl)-7H-pyrrolo[2,3-d]pyrimidin-5-yl]benzonitrile]
61 | 95 | CCC1CN(c2ncnc3[nH]cc(-c4cccc(C#N)c4)c23)CCO1 (centres unmarked) [Example 140, 3-[4-(2-ethylmorpholin-4-yl)-7H-pyrrolo[2,3-d]pyrimidin-5-yl]benzonitrile]
22 | 44 | Cc1ccc(Cl)c(-c2c[nH]c3ncnc(N4CCOCC4)c23)c1 [Example 106, 5-(2-chloro-5-methylphenyl)-4-(morpholin-4-yl)-7H-pyrrolo[2,3-d]pyrimidine]
85 | 176 | COc1ccc(C#N)cc1-c1c[nH]c2ncnc(N3C[C@H](C)C[C@H](C)C3)c12 [Example 65, 3-[4-(3,5-cis-dimethylpiperidin-1-yl)-7H-pyrrolo[2,3-d]pyrimidin-5-yl]-4-methoxybenzonitrile]
13.2 | 90.1 | Cc1c(C#N)cccc1-c1c[nH]c2ncnc(N3CCOCC3)c12 [Example 203, 2-methyl-3-[4-(morpholin-4-yl)-7H-pyrrolo[2,3-d]pyrimidin-5-yl]benzonitrile]
49 | 393 | N#Cc1ccc(F)c(-c2c[nH]c3ncnc(N4CCOCC4)c23)c1 [Example 80, 4-fluoro-3-[4-(morpholin-4-yl)-7H-pyrrolo[2,3-d]pyrimidin-5-yl]benzonitrile]
28 | 46 | COc1cccc(-c2c[nH]c3ncnc(N4CCOCC4)c23)c1 [Example 97, 5-(3-methoxyphenyl)-4-(morpholin-4-yl)-7H-pyrrolo[2,3-d]pyrimidine]
35 | 159 | c1cncc(-c2c[nH]c3ncnc(N4CCOCC4)c23)c1 [Example 103, 4-(morpholin-4-yl)-5-(pyridin-3-yl)-7H-pyrrolo[2,3-d]pyrimidine]
95 | 219 | COCC1CCCN(c2ncnc3[nH]cc(-c4cccc(C#N)c4)c23)C1 (centres unmarked) [Example 27, 3-{4-[3-(methoxymethyl)piperidin-1-yl]-7H-pyrrolo[2,3-d]pyrimidin-5-yl}benzonitrile]
45 | 181 | N#Cc1cccc(-c2c[nH]c3ncnc(N4CCOC(c5nccs5)C4)c23)c1 (centres unmarked) [Example 131, 3-{4-[2-(1,3-thiazol-2-yl)morpholin-4-yl]-7H-pyrrolo[2,3-d]pyrimidin-5-yl}benzonitrile]
12 | 43 | Cc1[nH]c2ncnc(N3CCOCC3)c2c1-c1cccc(C#N)c1 [Example 2, 3-[6-Methyl-4-(morpholin-4-yl)-7H-pyrrolo[2,3-d]pyrimidin-5-yl]benzonitrile]

IC50 [1] [nM] | IC50 [2] [nM] | SMILES
6 | 17 | CN(C)c1ncnc2[nH]cc(-c3cccc(C#N)c3F)c12 [Example 69, 3-[4-(dimethylamino)-7H-pyrrolo[2,3-d]pyrimidin-5-yl]-2-fluorobenzonitrile]
42.2 | 336 | N#Cc1cccc(-c2c[nH]c3ncnc(N4CCOC(C#N)C4)c23)c1 (centres unmarked) [Example 209, 4-[5-(3-cyanophenyl)-7H-pyrrolo[2,3-d]pyrimidin-4-yl]morpholine-2-carbonitrile]
8 | 37 | N#Cc1cccc(-c2c[nH]c3ncnc(N4CCC[C@@H](O)C4)c23)c1 [Example 155, 3-{4-[(3R)-3-hydroxypiperidin-1-yl]-7H-pyrrolo[2,3-d]pyrimidin-5-yl}benzonitrile]
18 | 86 | N#Cc1cccc(-c2c[nH]c3ncnc(N4CCC(F)CC4)c23)c1F [Example 158, 2-fluoro-3-[4-(4-fluoropiperidin-1-yl)-7H-pyrrolo[2,3-d]pyrimidin-5-yl]benzonitrile]
38 | 29 | OCC1CCN(c2ncnc3[nH]cc(-c4ccccc4)c23)CC1 [Example 19, [1-(5-phenyl-7H-pyrrolo[2,3-d]pyrimidin-4-yl)piperidin-4-yl]methanol]
25 | 29 | COc1ccc(F)cc1-c1c[nH]c2ncnc(N3CCC(F)CC3)c12 [Example 163, 5-(5-fluoro-2-methoxyphenyl)-4-(4-fluoropiperidin-1-yl)-7H-pyrrolo[2,3-d]pyrimidine]
23 | 208 | N#Cc1cccc(-c2c[nH]c3ncnc(N4CCOC(c5cc[nH]n5)C4)c23)c1 (single isomer, unassigned) [Example 76, 3-{4-[2-(1H-pyrazol-3-yl)morpholin-4-yl]-7H-pyrrolo[2,3-d]pyrimidin-5-yl}benzonitrile]
18 | 30 | Cc1cncc(-c2c[nH]c3ncnc(N4CCOCC4)c23)c1 [Example 149, 5-(5-methylpyridin-3-yl)-4-(morpholin-4-yl)-7H-pyrrolo[2,3-d]pyrimidine]
68 | 59 | C[C@H]1CCCN(c2ncnc3[nH]cc(-c4ccc5c(c4)C(=O)NC5)c23)C1 [Example 54, 6-{4-[(3S)-3-methylpiperidin-1-yl]-7H-pyrrolo[2,3-d]pyrimidin-5-yl}-2,3-dihydro-1H-isoindol-1-one]
12 | 100 | COCC1CN(c2ncnc3[nH]cc(-c4cccc(C#N)c4)c23)CCO1 (single isomer, unassigned) [Example 74]
5 | 15 | CN(C)c1ncnc2[nH]cc(-c3cccc(C#N)c3)c12 [Example 5, 3-[4-(Dimethylamino)-7H-pyrrolo[2,3-d]pyrimidin-5-yl]benzonitrile]
54 | 68 | COc1ccccc1-c1c[nH]c2ncnc(N3CCCC3)c12 [Example 176, 5-(2-methoxyphenyl)-4-(pyrrolidin-1-yl)-7H-pyrrolo[2,3-d]pyrimidine]
77 | 177 | COc1cc(C#N)cc(-c2c[nH]c3ncnc(N4CCOCC4)c23)c1 [Example 118, 3-methoxy-5-[4-(morpholin-4-yl)-7H-pyrrolo[2,3-d]pyrimidin-5-yl]benzonitrile]
10 | 14 | C[C@H]1CCCN(c2ncnc3[nH]cc(-c4cccc5[nH]ncc45)c23)C1 [Example 48, 5-(1H-indazol-4-yl)-4-[(3S)-3-methylpiperidin-1-yl]-7H-pyrrolo[2,3-d]pyrimidine]
31 | 27 | Cn1cc(-c2c[nH]c3ncnc(N4CCCC(F)C4)c23)cn1 (centres unmarked) [Example 123, 4-(3-fluoropiperidin-1-yl)-5-(1-methyl-1H-pyrazol-4-yl)-7H-pyrrolo[2,3-d]pyrimidine]
